# Source: patent US9963452B2, “Methods, compounds, and compositions for inhibition of ROS” (AUGUSTA PHARMACEUTICALS INC., priority 2013, dated 2018)
# System: glioblastoma cell lines
# Test: Glioblastoma growth inhibition by Xalkori (cell-based assay, FIG. 3)
# Conditions: depending on the cell line (FIG. 3)
# Protocol: Five tumor-derived cell lines were treated with the ROS inhibitor compounds and cell survival was monitored to determine the cancer prohibition effects of the compounds. The cell lines included HeLa, a cervical cancer cell line, and four glioblastoma cell lines U138, U87, LN18, and U118. The basic protocol for the in-vitro cell survival assay is the same for all five cell lines. In particular, the cells were seeded in 96-well plates at 2-5×10^3 cells/well (cell line dependent) in culture medium. The cells were grown for 2 days before the compounds were dissolved in DMSO and added to final concentrations of 100 uM, 10 uM, or 1 uM (DMSO final concentration 0.5%). The cell culture was then assayed one day after the addition of the compounds. The assay used Alamar blue as a redox-sensitive dye that interrogates mitochondrial fitness of cells, and these assays provided a readout for cell proliferation and viability. The raw values were normalized to an average of several vehicle control wells and are presented as percent decrease in proliferation/viability, which is converted to half maximal effective concentration (EC50) values.
# FIG. 3: Potency, selectivity and growth inhibitory effects of Xalkori in in vitro kinase and cell-based assays. […] U138 and U118 have been documented to express aberrant ROS (FIG-ROS fusion). […]
smiles,measurement,value
C[C@@H](Oc1cc(-c2cnn(C3CCNCC3)c2)cnc1N)c1c(Cl)ccc(F)c1Cl [Crizotinib],EC50,0.012 to 0.02 µM
